Measured values published in US20040002450A1, “Y17 - isolated molecules comprising epitopes containing sulfated moieties, antibodies to such epitopes, and uses thereof” (priority 2000, published 2004).
Non-standard residues stand in square brackets, D forms with d. No end group written: not given here. sY = N[C@@H](Cc1ccc(OS(=O)(=O)O)cc1)C(=O)O

How the values were obtained:
KG-1 cells = assay: AML KG-1 model in SCID/NOD mice; assay type: in vivo
Experimental: The in vivo mouse model for human AML uses SCID/NOD mice (Jackson Laboratories) inoculated with KG-1 cells derived from a human AML cell line.
In a first experiment, NOD/SCID mice were pretreated with 100 mg/kg CYTOXAN®. Four days post CYTOXANT injection, KG-1 cells were injected intravenously into the tail vein of six groups of mice. (Table N, Groups 2 and 5-9). One group of mice (Table N, Group 1) was injected with PBS alone (control).
Beginning 19 days post KG-1 injection mice were treated with: CONY1, Doxorubicin, CONY1-Doxorubicin conjugate, or Mylotarg®. (Mylotarg® is a monoclonal antibody (anti CD33) conjugated chemically to calcheamicin recently approved by the FDA for treatment of AML patients age 60 and over in a first relapse.) Mice were treated once or three times per week for three weeks. One group (group 2) of KG-1 inoculated mice Were left untreated. (Table N). Two other groups of mice (groups 3 and 4) were injected with KG-1 cells that were previously incubated with CONY1 or 181-scFv (a negative, non-specific control antibody) in serum free RPMI containing 1% BSA at 4° C. for 1 h. The antibodies were used at a concentration of 0.25 mg scFv/10^8 cells (75 μg/mouse). Before injection into the mice the preincubated KG-1 cells were washed are resuspended in RPMI. The KG-1 cells in RPMI were inoculated into mice at a concentration of 75 μg scFv/0.2 ml RPMI per mouse. Group 3 mice were inoculated with KG-1+CONY1, and group 4 mice were inoculated with KG-1+181-scFv. (Table N). […]
Mice were sacrificed from 60 to 65 days post cell injection. Bone marrow and blood samples were analyzed by flow cytometry using mouse anti human CD34-FITC (IQP 144F) (or anti CD44-FITC (MCA89F, Serotec)) and Y1-Biotin/SAV-PE. […]
An additional experiment was performed in which SCID-NOD mice were i.v. injected with 3×10^4 MOLT-4 cells/mouse 5 days post treatment with cyclophosphamide. […] Bone marrow was extracted and analyzed by FACS analysis using a commercially available antiCD44 antibody for the detection of MOLT-4 cells in the mice bone marrow cell population.

[1] = test system: Y1 binding to purified glycocalicin; assay: ELISA: effect of synthetic GPIbα peptides on Y1 binding to purified glycocalicin; set-up: species or system human; conditions: 0.25 μg/well Y1
Experimental: ELISA assays were developed to evaluate the effect of the GPIb derived synthetic peptides on the binding of Y1 to purified glycocalicin. In addition, FACS analysis using washed platelets was carried out. To evaluate the importance of sulfated tyrosine within the Y1 binding site of GPIb, a competitive binding FACS analysis was used. Y1-scFv at a concentration of 1 μg was preincubated with different peptides at concentrations of 2.5 and 200 μM. After a preincubation for 30 minutes at room temperature the mixture was added to a tube containing ˜10^7 washed platelets and the binding of Y1 to the washed platelets was assessed using polyclonal rabbit anti-scFv-PE. The inhibitory effect of the peptides compared to control binding (Y1 alone) was evaluated by measuring the residual binding of Y1 to washed platelets. The peptides and the results are described in Table 1 and are similar to results that were observed using the same peptides in an ELISA assay (Table B). In both assays, a control level of Y1 binding was determined, as follows. A polystyrene microtiter maxisorb plate was coated with (a) purified glycocalicin or (b) washed platelets. […] The plate was then incubated with rabbit anti-scFv followed by addition of anti rabbit —HRP (horse radish peroxidase) and HRP substrate. The level of anti rabbit —HRP binding was measured by the intensity of the color produced, and the level of anti rabbit —HRP binding correlates with the level of binding of anti Y1-scFv and the level of binding of Y1. The optical density was measured at A405. Each sample was assayed in duplicate, and the average was calculated.
The effect of synthetic GPIbα peptides on Y1 binding to purified glycocalicin was evaluated by mixing varying concentrations of the peptides with a constant amount of Y1. After a preincubation for 30 minutes at room temperature, the mixture was added to a polystyrene microtiter maxisorb plate coated with purified glycocalicin, as described for evaluation of Y1 binding in the absence of peptides. The inhibitory effect of the peptides was evaluated by measuring the residual binding of Y1 to glycocalicin using rabbit anti Y1scFv and anti rabbit —HRP antibodies, as described for evaluation of Y1 binding in the absence of peptides. This study was performed with four peptides representing various subsets of the sequence 268 to 285 and a control peptide. Each peptide was tested at different concentrations: 200 μM, 25 μM, 2.5 μM, and 0.5 μM.

[2] = test system: Y1 binding to washed platelets; assay: Comparative FACS: effect of synthetic GPIbα peptides on Y1 binding to washed platelets; set-up: species or system human
Experimental: ELISA assays were developed to evaluate the effect of the GPIb derived synthetic peptides on the binding of Y1 to purified glycocalicin. In addition, FACS analysis using washed platelets was carried out. To evaluate the importance of sulfated tyrosine within the Y1 binding site of GPIb, a competitive binding FACS analysis was used. Y1-scFv at a concentration of 1 μg was preincubated with different peptides at concentrations of 2.5 and 200 μM. After a preincubation for 30 minutes at room temperature the mixture was added to a tube containing ˜10^7 washed platelets and the binding of Y1 to the washed platelets was assessed using polyclonal rabbit anti-scFv-PE. The inhibitory effect of the peptides compared to control binding (Y1 alone) was evaluated by measuring the residual binding of Y1 to washed platelets. The peptides and the results are described in Table 1 and are similar to results that were observed using the same peptides in an ELISA assay (Table B). In both assays, a control level of Y1 binding was determined, as follows. A polystyrene microtiter maxisorb plate was coated with (a) purified glycocalicin or (b) washed platelets. After extensive washing, 0.5 μg/well of Y1 was added. The plate was then incubated with rabbit anti-scFv followed by addition of anti rabbit —HRP (horse radish peroxidase) and HRP substrate. The level of anti rabbit —HRP binding was measured by the intensity of the color produced, and the level of anti rabbit —HRP binding correlates with the level of binding of anti Y1-scFv and the level of binding of Y1. The optical density was measured at A405. Each sample was assayed in duplicate, and the average was calculated.

[3] = test system: scFv Y1 binding to glycocalicin; assay: Competitive binding ELISA of sulfated peptides (scFv Y1 binding to immobilized glycocalicin); set-up: species or system human; conditions: peptide 1, 10 and 100 μM, preincubated 10 minutes with scFv Y1
Experimental: A competitive binding ELISA assay was used to assess the importance of the presence and position of sulfated tyrosines to the binding of peptides to Y1.
Glycocalicin was immobilized on a Maxisorb plate. scFv Y1 was preincubated with a peptide of interest for 10 minutes at three different concentrations (1, 10 and 100 μM) in order to observe a dose response. (Table 12). After preincubation, the mixture (Y1+peptide) was added to the plate, and binding of scFv Y1 was assessed using polyclonal rabbit anti-VL, which recognizes the VL chain of scFv Y1, followed by anti-rabbit-HRP. In mixtures in which the peptide bound to scFv Y1, a decrease in the binding of scFv Y1 to glycocalicin compared to control binding was observed.

Row | Compound | percentage of KG-1 cells in bone marrow compared to untreated group 2 (in words) (KG-1 cells; 0.1 mg/kg free Doxorubicin, 3 times per week (group 6)) | Residual Binding of Y1 (% of baseline) ([1]; peptide 0.5 μM) | Residual Binding of Y1 (% of baseline) ([1]; peptide 2.5 μM) | Residual Binding of Y1 (% of baseline) ([1]; peptide 25 μM) | Residual Binding of Y1 (% of baseline) (Geo Mean) ([2]; peptide 2.5 μM) | Residual Binding of Y1 (% of baseline) (Geo Mean) ([2]; peptide 200 μM) | Residual Binding of Y1 (% of baseline) ([1]; peptide 200 μM) | inhibition of Y1 binding to glycocalicin (in words) [3] | KG-1 cells in bone marrow (in words) (KG-1 cells; 0.2 mg/kg, 1 time per week (group 9)) | development of the malignancy / prevalence of bone marrow cancer (in words) (KG-1 cells; additional experiment, day 60, CONY1 scFv 75 μg/mouse three times/week, Mylotarg 7 μg/mouse once a week)
1 | COc1cccc2c1C(=O)c1c(O)c3c(c(O)c1C2=O)C[C@@](O)(C(=O)CO)C[C@@H]3O[C@H]1C[C@H](N)[C@H](O)[C@H](C)O1 [Doxorubicin] | statistically significant (p<0.05) lower percentage | – | – | – | – | – | – | – | – | –
2 | GDEGDTDLY*DY*Y*P (GDEGDTDL[sY]D[sY][sY]P) [P-3-S, residues 268-280 of GPIbα, Y* sulfated tyrosine] | – | 80 % of baseline | 67 % of baseline | 21 % of baseline | 82 % of baseline | 26 % of baseline | – | – | – | –
3 | GDEGDTDLY*DY*Y*PEEDTE (GDEGDTDL[sY]D[sY][sY]PEEDTE) [P-1-S, residues 268-285 of GPIbα, Y* sulfated tyrosine] | – | 89 % of baseline | 62 % of baseline | 25 % of baseline | 41 % of baseline | 5 % of baseline | 0 % of baseline | did inhibit | – | –
4 | GDEGDTDLYDYYPEEDTE [P-1, residues 268-285 of GPIbα, non-sulfated] | – | 88 % of baseline | 94 % of baseline | 71 % of baseline | 106 % of baseline | 87 % of baseline | 61 % of baseline | – | – | –
5 | Mylotarg: monoclonal antibody (anti CD33) conjugated chemically to calcheamicin, FDA approved for AML | – | – | – | – | – | – | – | – | free of KG 1 cells | completely inhibited
6 | REEGRQHFFLLEGRSSYS [negative control peptide, reference compound] | – | 121 % of baseline | 100 % of baseline | 89 % of baseline | 96 % of baseline | 119 % of baseline | 85 % of baseline | – | – | –
7 | TDLY*DY*Y*PEEDTE (TDL[sY]D[sY][sY]PEEDTE) [P-2-S, residues 273-285 of GPIbα, Y* sulfated tyrosine] | – | 78 % of baseline | 52 % of baseline | 15 % of baseline | 61 % of baseline | 7 % of baseline | – | – | – | –
